Experimental data published in ChEMBL document CHEMBL3603765, “Targeting Drug Resistance in EGFR with Covalent Inhibitors: A Structure-Based Design Approach” (J Med Chem, 2015).
Converted amounts (≈) assume the structure as drawn. The source made the active and inactive calls. The rule behind the calls is not given here.

How the values were obtained:
NCI-H1975 [1] = assay: Growth inhibition of human NCI-H1975 cells expressing EGFR L858R/T790M mutant incubated for 96 hrs by cell-titer Glo reagent based assay; format: functional; details: NCI-H1975, 96 h
[2] = target: T1, Epidermal growth factor receptor (Homo sapiens, UniProt P00533, L858R/T790M); assay: Inhibition of EGFR L858R/T790M mutant (unknown origin) expressed in Sf9 cells by enzyme kinetics assay
[3] = Permeability of the compound after 16 hrs assessed as compound flux by PAMPA method; format: physicochemical
[4] = Growth inhibition of human HCC827 cells with exon 19 deletion and delE746-A750 incubated for 96 hrs by cell-titer Glo reagent based assay; format: functional; details: HCC827, 96 h
A-431 = assay: Growth inhibition of human A431 cells incubated for 96 hrs by cell-titer Glo reagent based assay; format: functional; details: A-431, 96 h
[5] = target: Epidermal growth factor receptor (Homo sapiens, UniProt P00533); assay: Inhibition of wild type EGFR (unknown origin) expressed in Sf9 cells pre-incubated for 30 mins before substrate and ATP addition by homogeneous time-resolved FRET assay
[6] = target: T2, Epidermal growth factor receptor (Homo sapiens, UniProt P00533, L858R)
[7] = Efflux ratio in human Caco2 cells incubated for 2 hrs; format: ADME, cell-based; details: Caco-2
[8] = system: Epidermal growth factor receptor (Homo sapiens), P00533 [L858R,T790M]; assay: Inhibition of EGFR L858R/T790M mutant (unknown origin) expressed in Sf9 cells assessed as enzyme inactivation constant by enzyme kinetics assay
[9] = Kinetic solubility in 50 mM Hepes buffer at pH 7.4; format: physicochemical; details: read-out: Kinetic_solubility
Homo sapiens = species on record: Homo sapiens; assay: Selectivity index, ratio of IC50 for cSrc T338M mutant (unknown origin) to IC50 for cSrc T338M/S345C mutant (unknown origin)
[10] = system: Epidermal growth factor receptor (Homo sapiens), P00533 [T790M]; assay: Binding affinity to EGFR T790M mutant (unknown origin) expressed in Sf9 cells by ESI-MS method
[11] = system: Epidermal growth factor receptor (Homo sapiens), P00533 [T790M]; assay: Binding affinity to EGFR T790M mutant (unknown origin) expressed in Sf9 cells assessed as covalent modification at Cys797 residue nano-LC-MS/MS method
[12] = target: T2, Epidermal growth factor receptor; assay: Inhibition of EGFR L858R mutant (unknown origin) expressed in Sf9 cells by enzyme kinetics assay
[13] = target: Proto-oncogene tyrosine-protein kinase Src (Homo sapiens, UniProt P12931, S348C/T341M); assay: Inhibition of cSrc T338M/S345C mutant (unknown origin) pre-incubated for 30 mins before substrate and ATP addition by HTRF assay
[14] = target: T1, Epidermal growth factor receptor
[15] = system: Epidermal growth factor receptor (Homo sapiens), P00533 [L858R]; assay: Inhibition of EGFR L858R mutant (unknown origin) expressed in Sf9 cells assessed as enzyme inactivation constant by enzyme kinetics assay
[16] = target: Proto-oncogene tyrosine-protein kinase Src (Homo sapiens, UniProt P12931, T341M); assay: Inhibition of cSrc T338M mutant (unknown origin) pre-incubated for 30 mins before substrate and ATP addition by HTRF assay
NCI-H661 = assay: Growth inhibition of human NCI-H661 cells incubated for 96 hrs by cell-titer Glo reagent based assay; format: functional; details: NCI-H661, 96 h
NCI-H1975 [17] = assay: Growth inhibition of human NCI-H1975 cells expressing EGFR L858R/T790M mutant at 30 um incubated for 96 hrs by cell-titer Glo reagent based assay; format: functional
[18] = target: Proto-oncogene tyrosine-protein kinase Src (Homo sapiens, UniProt P12931); assay: Inhibition of wild type cSrc (251 to 533 residues) (unknown origin) pre-incubated for 30 mins before substrate and ATP addition by HTRF assay

| Compound | GI50 (NCI-H1975 [1]) [µM] | GI50 [4] [µM] | IC50 [5] [µM] | IC50 [6] [µM] | IC50 [14] [µM] | further results |
| --- | --- | --- | --- | --- | --- | --- |
| C=CC(=O)Nc1cccc(Oc2nc(Nc3cc(C)[nH]n3)cc(N3CCN(C)CC3)n2)c1 | 20 | 8.2 | > 10 | 0.03 | 0.5 | Ki [2]: 0.00064 µM; permeability [3]: 7%; GI50 (A-431): 5.7 µM; efflux ratio at 2 h [7]: 32; Kinact [8]: 0.116 min⁻¹; solubility kinetic [9]: 432 µM (≈ 188 µg/mL); Ratio IC50 (Homo sapiens): 5; Activity [10]: Active; Activity [11]: Active; Ki [12]: 0.0702 µM; IC50 [13]: 0.028 µM; Kinact [15]: 0.017 min⁻¹; IC50 [16]: 0.17 µM |
| CCC(=O)Nc1ccc(Oc2nc(Nc3cc(C)[nH]n3)cc(N3CCN(C)CC3)n2)cc1 | – | – | > 10 | 1.9 | 0.7 | – |
| C=CC(=O)Nc1cccc(Nc2nc(Nc3ccc(N4CCN(C(C)=O)CC4)cc3OC)ncc2C(F)(F)F)c1 [ROCILETINIB] | 0.03 | 0.03 | – | – | – | GI50 (NCI-H661): 1.7 µM |
| C=CC(=O)Nc1cccc(-c2nc(Nc3n[nH]c4ccccc34)cc(N3CCN(C)CC3)n2)c1 | 11 | 16 | > 10 | 5 | 4.9 | GI50 (NCI-H661): 12 µM |
| CCC(=O)Nc1ccccc1Oc1nc(Nc2cc(C)[nH]n2)cc(N2CCN(C)CC2)n1 | – | – | > 10 | > 10 | > 10 | – |
| CCC(=O)Nc1cccc(Oc2nc(Nc3n[nH]c4ccccc34)cc(N3CCN(C)CC3)n2)c1 | 30 | > 30 | > 10 | > 10 | 8.6 | IC50 [13]: 0.26 µM; GI50 (NCI-H661): 22 µM |
| C=CC(=O)Nc1ccc(Oc2nc(Nc3cc(C)[nH]n3)cc(N3CCN(C)CC3)n2)cc1 | – | – | 3.1 | 1.8 | 2.4 | – |
| Cc1cc(Nc2cc(N3CCN(C)CC3)nc(Oc3ccccc3[N+](=O)[O-])n2)n[nH]1 | – | – | > 10 | 1.9 | 1.6 | – |
| CN(C)C/C=C/C(=O)Nc1cccc(Oc2nc(Nc3n[nH]c4ccccc34)cc(N3CCN(C)CC3)n2)c1 | – | > 30 | 6.7 | 3.6 | 0.7 | growth inhibition (GI) (NCI-H1975 [17]): inactive; GI50 (NCI-H661): > 30 µM |
| C=CC(=O)Nc1ccccc1Oc1nc(Nc2cc(C)[nH]n2)cc(N2CCN(C)CC2)n1 | – | – | 0.9 | 0.6 | 2.1 | – |
| C=CC(=O)Nc1cc(Nc2cc[nH]n2)nc(-c2ccccc2)n1 | – | – | 0.9 | 0.8 | 0.3 | Activity [10]: Active |
| Cc1cc(Nc2cc(N3CCN(C)CC3)nc(Oc3cccc([N+](=O)[O-])c3)n2)n[nH]1 | 6.5 | 8.9 | 3.9 | 2.3 | 0.6 | GI50 (A-431): 3.5 µM |
| CCC(=O)Nc1ccc2c(Nc3cc[nH]n3)nc(-c3ccccc3)nc2c1 | – | – | > 10 | 2.1 | 2.2 | IC50 [18]: 0.336 µM; IC50 [13]: 0.048 µM; IC50 [16]: 0.06 µM |
| CCC(=O)Nc1cc(Nc2cc[nH]n2)nc(-c2ccccc2)n1 | – | – | > 10 | 3.4 | > 10 | – |
| Cc1cc(Nc2cc(N3CCN(C)CC3)nc(Oc3ccc([N+](=O)[O-])cc3)n2)n[nH]1 | – | – | > 10 | 1.8 | 0.9 | – |
| C=CC(=O)Nc1cccc(-c2nc(Nc3cc[nH]n3)c3ccccc3n2)c1 | – | – | 1.1 | 0.5 | 0.1 | – |
| CCC(=O)Nc1cccc(Oc2nc(Nc3cc(C)[nH]n3)cc(N3CCN(C)CC3)n2)c1 | > 30 | > 30 | > 10 | 1.9 | > 10 | GI50 (A-431): 8.4 µM; IC50 [13]: 0.349 µM; IC50 [16]: 0.254 µM |
